# Assay results: patent US9695155B2, “Herbicidal substituted pyrimidinyloxy benzene compounds” (E. I. DU PONT DE NEMOURS AND COMPANY, priority 2013, dated 2017)
# Legend:
# bromegrass, downy = assay: Test C postemergence; type: in vivo, Bromus tectorum; conditions: for Plant response rating (0 to 100), Bromegrass, Downy: postemergence; for Plant response rating, Bromegrass, Downy: Postemergence, scale 0 to 100 (0 no effect, 100 complete control)
# Text: (§1) Seeds of plant species selected from blackgrass (Alopecurus myosuroides), Italian ryegrass (Lolium multiflorum), wheat, winter (winter wheat, Triticum aestivum), galium (catchweed bedstraw, Galium aparine), corn (Zea mays), large (Lg) crabgrass (Digitaria sanguinalis), giant foxtail (Setaria faberii), johnsongrass (Sorghum halepense), lambsquarters (Chenopodium album), morningglory (Ipomoea coccinea), yellow nutsedge (Cyperus esculentus), pigweed (Amaranthus retroflexus), ragweed (common ragweed, Ambrosia elatior), soybean (Glycine max), barnyardgrass (Echinochloa crus-galli), oilseed rape (Brassica napus), waterhemp (common waterhemp, Amaranthus rudis), kochia (Kochia scoparia), wild oat (Avena fatua), surinam grass (Brachiaria decumbens), foxtail, green (green foxtail, Setaria viridis), goosegrass (Eleusine indica), bromegrass, downy (downy bromegrass, Bromus tectorum), nightshade (eastern black nightshade, Solanum ptycanthum), cocklebur (common cocklebur, Xanthium strumarium), cupgrass, woolly (woolly cupgrass, Eriochloa villosa), bermudagrass (Cynodon dactylon), sunflower, (common oilseed sunflower, Helianthus annuus), Russian thistle (Salsola kali), and velvetleaf (Abutilon theophrasti) were planted into a blend of loam soil and sand and treated preemergence with test chemicals formulated in a non-phytotoxic solvent mixture which included a surfactant.
# (§2) At the same time, plants selected from these crop and weed species and also barley, winter (winter barley, Hordeum vulgare), windgrass (Apera spica-venti), chickweed (common chickweed, Stellaria media), deadnettle (henbit deadnettle, Lamium amplexicaule), and canarygrass (littleseed canarygrass, Phalaris minor) were planted in pots containing Redi-Earth® planting medium (Scotts Company, 14111 Scottslawn Road, Marysville, Ohio 43041) comprising spaghnum peat moss, vermiculite, wetting agent and starter nutrients and treated with postemergence applications of test chemicals formulated in the same manner. Plants ranged in height from 2 to 18 cm (1- to 4-leaf stage) for postemergence treatments. Treated plants and controls were maintained in a greenhouse for 13 to 15 days, after which time all species were compared to controls and visually evaluated. Plant response ratings, summarized in Table C, are based on a scale of 0 to 100 where 0 is no effect and 100 is complete control. A dash (-) response means no test result.
# barley, winter = assay: Test C postemergence; type: in vivo, Hordeum vulgare; conditions: for Plant response rating (0 to 100), Barley: postemergence; for Plant response rating, Barley: Postemergence, scale 0 to 100 (0 no effect, 100 complete control)
# Text: as §1, §2
# windgrass = assay: Test C postemergence; type: in vivo, Apera spica-venti; conditions: for Plant response rating (0 to 100), Windgrass: postemergence; for Plant response rating, Windgrass: Postemergence, scale 0 to 100 (0 no effect, 100 complete control)
# Text: as §1, §2
# surinam grass = assay: Test C postemergence; type: in vivo, Brachiaria decumbens; conditions: for Plant response rating, Surinam Grass: Postemergence, scale 0 to 100 (0 no effect, 100 complete control)
# Text: as §1
# as §2, with “Treated plants and controls were maintained in a greenhouse for 13 to 15 days, after which time all species were compared to controls and visually evaluated. Plant response ratings, summarized in Table C, are based on a scale of 0 to 100 where 0 is no effect and 100 is complete control. A dash (-) response means no test result.” left out
# foxtail, green = assay: Test C postemergence; type: in vivo, Setaria viridis; conditions: for Plant response rating (0 to 100), Foxtail, Green: postemergence; for Plant response rating, Foxtail, Green: Postemergence, scale 0 to 100 (0 no effect, 100 complete control)
# Text: as §1, §2
# canarygrass = assay: Test C postemergence; type: in vivo, Phalaris minor; conditions: for Plant response rating (0 to 100), Canarygrass: postemergence; for Plant response rating, Canarygrass: Postemergence, scale 0 to 100 (0 no effect, 100 complete control)
# Text: as §1, §2
# bermudagrass = assay: Test C postemergence; type: in vivo, Cynodon dactylon; conditions: for Plant response rating (0 to 100), Bermudagrass: postemergence; for Plant response rating, Bermudagrass: Postemergence, scale 0 to 100 (0 no effect, 100 complete control)
# Text: as §1, §2
# goosegrass = assay: Test C postemergence; type: in vivo, Eleusine indica; conditions: for Plant response rating (0 to 100), Goosegrass: postemergence; for Plant response rating, Goosegrass: Postemergence, scale 0 to 100 (0 no effect, 100 complete control)
# Text: as §1, §2
# smartweed = assay: Test E preemergence; type: in vivo, ladysthumb smartweed; conditions: for Smartweed plant response rating: scale 0 to 100 (0 no effect, 100 complete control); for Plant response rating, Smartweed: scale 0 to 100, 0 no effect, 100 complete control
# Text: Seeds of plant species selected from corn (Zea mays), soybean (Glycine max), velvetleaf (Abutilon theophrasti), lambsquarters (Chenopodium album), wild poinsettia (Euphorbia heterophylla), palmer pigweed (Amaranthus palmeri), waterhemp (common waterhemp, Amaranthus rudis), surinam grass (Brachiaria decumbens), large (Lg) crabgrass (Digitaria sanguinalis), Brazilian crabgrass (Digitaria horizontalis), fall panicum (Panicum dichotomiflorum), giant foxtail (Setaria faberii), green foxtail (Setaria viridis), goosegrass (Eleusine indica), johnsongrass (Sorghum halepense), ragweed (common ragweed, Ambrosia elatior), barnyardgrass (Echinochloa crus-galli), sandbur (southern sandbur, Cenchrus echinatus), arrowleaf sida (Sida rhombifolia), Italian ryegrass (Lolium multiflorum), dayflower (Virginia (VA) dayflower, Commelina virginica), field bindweed (Convolvulus arvensis), morningglory (Ipomoea coccinea), nightshade (eastern black nightshade, Solanum ptycanthum), kochia (Kochia scoparia), yellow nutsedge (Cyperus esculentus), cocklebur (common cocklebur, Xanthium strumarium), smartweed (ladysthumb smartweed, and hairy beggarticks (Bidens pilosa), were planted into a silt loam soil and treated preemergence with test chemicals formulated in a non-phytotoxic solvent mixture which included a surfactant.
# At the same time, plants from these crop and weed species and also horseweed (Canada horseweed, Conyza canadensis), waterhemp_RES1, (ALS & Triazine resistant common waterhemp, Amaranthus rudis), and waterhemp_RES2, (ALS & HPPD resistant common waterhemp, Amaranthus rudis) were planted in pots containing Redi-Earth® planting medium (Scotts Company, 14111 Scottslawn Road, Marysville, Ohio 43041) comprising spaghnum peat moss, vermiculite, wetting agent and starter nutrients were treated with postemergence applications of test chemicals formulated in the same manner. Plants ranged in height from 2 to 18 cm for postemergence treatments (1- to 4-leaf stage). Treated plants and controls were maintained in a greenhouse for 14 to 21 days, after which time all species were compared to controls and visually evaluated. Plant response ratings, summarized in Table E, are based on a scale of 0 to 100 where 0 is no effect and 100 is complete control. A dash (-) response means no test result.
structure (smiles),measurement,setting,value
"Clc1cnn(-c2ccccc2Oc2ncc(Br)cn2)c1 [Compound 5, 5-bromo-2-[2-(4-chloro-1H-pyrazol-1-yl)phenoxy]pyrimidine]","Plant response rating (0 to 100), Bromegrass, Downy","bromegrass, downy; 125 g ai/ha",5
same,"Plant response rating (0 to 100), Bromegrass, Downy","bromegrass, downy; 250 g ai/ha",10
same,"Plant response rating, Bromegrass, Downy","bromegrass, downy; 31 g ai/ha, 13 to 15 days",5
same,"Plant response rating, Bromegrass, Downy","bromegrass, downy; 62 g ai/ha",5
same,"Plant response rating (0 to 100), Barley","barley, winter; 125 g ai/ha",5
same,"Plant response rating (0 to 100), Barley","barley, winter; 250 g ai/ha",10
same,"Plant response rating, Barley","barley, winter; 31 g ai/ha, 13 to 15 days",0
same,"Plant response rating, Barley","barley, winter; 62 g ai/ha",0
same,"Plant response rating (0 to 100), Windgrass",windgrass; 125 g ai/ha,60
same,"Plant response rating (0 to 100), Windgrass",windgrass; 250 g ai/ha,85
same,"Plant response rating, Windgrass","windgrass; 31 g ai/ha, 13 to 15 days",10
same,"Plant response rating, Windgrass",windgrass; 62 g ai/ha,40
same,"Plant response rating (0 to 100), Surinam Grass","surinam grass; 125 g ai/ha, postemergence",45
same,"Plant response rating, Surinam Grass","surinam grass; 31 g ai/ha, 13 to 15 days",10
same,"Plant response rating, Surinam Grass",surinam grass; 62 g ai/ha,35
same,"Plant response rating (0 to 100), Foxtail, Green","foxtail, green; 125 g ai/ha",40
same,"Plant response rating (0 to 100), Foxtail, Green","foxtail, green; 250 g ai/ha",70
same,"Plant response rating, Foxtail, Green","foxtail, green; 31 g ai/ha, 13 to 15 days",0
same,"Plant response rating, Foxtail, Green","foxtail, green; 62 g ai/ha",40
same,"Plant response rating (0 to 100), Canarygrass",canarygrass; 125 g ai/ha,30
same,"Plant response rating (0 to 100), Canarygrass",canarygrass; 250 g ai/ha,40
same,"Plant response rating, Canarygrass","canarygrass; 31 g ai/ha, 13 to 15 days",5
same,"Plant response rating, Canarygrass",canarygrass; 62 g ai/ha,10
same,"Plant response rating (0 to 100), Bermudagrass",bermudagrass; 125 g ai/ha,10
same,"Plant response rating (0 to 100), Bermudagrass",bermudagrass; 250 g ai/ha,35
same,"Plant response rating, Bermudagrass","bermudagrass; 31 g ai/ha, 13 to 15 days",0
same,"Plant response rating, Bermudagrass",bermudagrass; 62 g ai/ha,0
same,"Plant response rating (0 to 100), Goosegrass",goosegrass; 125 g ai/ha,10
same,"Plant response rating (0 to 100), Goosegrass",goosegrass; 250 g ai/ha,15
same,"Plant response rating, Goosegrass","goosegrass; 31 g ai/ha, 13 to 15 days",0
same,"Plant response rating, Goosegrass",goosegrass; 62 g ai/ha,5
N#Cc1cccc(Oc2ncc(Cl)cn2)c1-n1cc(Cl)cn1 [Compound 72],Smartweed plant response rating,smartweed; 16 g ai/ha,0
same,Smartweed plant response rating,smartweed; 31 g ai/ha,0
same,Smartweed plant response rating,smartweed; 62 g ai/ha,0
same,"Plant response rating, Smartweed",smartweed; 125 g ai/ha,90
same,"Plant response rating, Smartweed",smartweed; 250 g ai/ha,98
